# Reference: patent US10821115B2, “Compounds that inhibit Mcl-1 protein” (priority 2017, dated 2020)
# Like-named read-outs stand apart in the source and are kept apart here.
# Legend:
# [1] = biological target: recombinant human Mcl-1 (residues 171-327) / Bim interaction (Homo sapiens (Human), UniProt Q07820); experiment: biochemical; format: binding; conditions: TR-FRET, Mcl-1(171-327) / biotin-Bim (51-76); read-out: Mcl-1 HTRF IC50
# [2] = system: human multiple myeloma cell line, OPM-2; experiment: Cell viability assay (OPM-2 10 FBS), CellTiter-Glo; format: cell-based
# Procedure, shortened: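 Steps: plate cells at 3000/well in 10% FBS growth medium, add serially diluted compound, incubate 16 h at 37 °C with 5% CO2, add detection reagent and read luminescence after 25 min. A 4-parameter logistic model gives IC50.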
# [3] = Homo sapiens, OPM-2, 16 h, read-out: OPM-2 10% FBS IC50 IP, OPM-2 cells, 10% FBS, 16 h, CellTiter-Glo
# [4] = read-out: OPM-2 10% FBS IC50 IP, OPM-2 cells, 10% FBS, 16 h, CellTiter-Glo
# Chain of recombinant human Mcl-1 (residues 171-327) / Bim interaction (Q07820 171-327): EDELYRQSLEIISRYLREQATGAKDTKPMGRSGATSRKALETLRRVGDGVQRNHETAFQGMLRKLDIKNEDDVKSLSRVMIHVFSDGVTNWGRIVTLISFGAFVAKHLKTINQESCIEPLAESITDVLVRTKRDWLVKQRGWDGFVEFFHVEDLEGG
Compound,IC50 [1] [nM],"IC50 [2, 3] [nM]","IC50 [2, 4] [nM]"
"C[C@@H]1[C@@H](C)C/C=C/[C@](O)(C#CCC2CCOCC2)[C@@H]2CC[C@H]2CN2C[C@@]3(CCCc4cc(Cl)ccc43)COc3ccc(cc32)C(=O)NS1(=O)=O [Example 100433, (1S,3′R,6′R,7′R,8′E,11′S,12′R)-6-chloro-7′-hydroxy-11′,12′-dimethyl-7′-(3-(tetrahydro-2H-pyran-4-yl)-1-propyn-1-yl)-3,4-dihydro-2H,15′H-spiro[naphthalene-1,22′-[20]oxa[13]thia[1,14]diazatetracyclo [14.7.2.0~3,6~.0~19,24~]pentacosa[8,16,18,24]tetraen]-15′-one 13′,13′-dioxide]",0.026,296,–
"CO[C@@]1(C[C@@H](C)O)/C=C/C[C@H](C)[C@@H](C)S(=O)(=O)NC(=O)c2ccc3c(c2)N(C[C@@H]2CC[C@H]21)C[C@@]1(CCCc2cc(Cl)ccc21)CO3 [Example 100435, (1S,3′R,6′R,7′S,8′E,11′S,12′R)-6-chloro-7′-((2R)-2-hydroxypropyl)-7′-methoxy-11′,12′-dimethyl-3,4-dihydro-2H,15′H-spiro[naphthalene-1,22′-[20]oxa[13]thia[1,14]diazatetracyclo [14.7.2.0~3,6~.0~19,24~]pentacosa[8,16,18,24]tetraen]-15′-one 13′,13′-dioxide]",0.055,305,–
"CO[C@@]1(C[C@@H](C)O)/C=C/C[C@H](C)[C@@H](C)S(=O)(=O)NC(=O)c2ccc3c(c2)N(C[C@@H]2CC[C@H]21)C[C@@]1(CCCc2cc(Cl)ccc21)CO3 [Example 100436, (1S,3′R,6′R,7′S,8′E,11′S,12′R)-6-chloro-7′-((2R)-2-hydroxypropyl)-7′-methoxy-11′,12′-dimethyl-3,4-dihydro-2H,15′H-spiro[naphthalene-1,22′-[20]oxa[13]thia[1,14]diazatetracyclo [14.7.2.0~3,6~.0~19,24~]pentacosa[8,16,18,24]tetraen]-15′-one 13′,13′-dioxide]",0.076,–,335
"C/C=C/C[C@]1(OC)/C=C/C[C@H](C)[C@@H](C)S(=O)(=O)NC(=O)c2ccc3c(c2)N(C[C@@H]2CC[C@H]21)C[C@@]1(CCCc2cc(Cl)ccc21)CO3 [Example 100438, (1S,3′R,6′R,7′S,8′E,11′S,12′R)-7′-((2E)-2-buten-1-yl)-6-chloro-7′-methoxy-11′,12′-dimethyl-3,4-dihydro-2H,15′H-spiro[naphthalene-1,22′-[20]oxa[13]thia[1,14]diazatetracyclo [14.7.2.0~3,6~.0~19,24~]pentacosa[8,16,18,24]tetraen]-15′-one 13′,13′-dioxide]",0.169,547,–
"C[C@@H]1[C@@H](C)C/C=C/[C@@](O)(C#CCCc2ccccn2)[C@@H]2CC[C@H]2CN2C[C@@]3(CCCc4cc(Cl)ccc43)COc3ccc(cc32)C(=O)NS1(=O)=O [Example 100440, (1S,3′R,6′R,7′S,8′E,11′S,12′R)-6-chloro-7′-hydroxy-11′,12′-dimethyl-7′-(4-(2-pyridinyl)-1-butyn-1-yl)-3,4-dihydro-2H,15′H-spiro[naphthalene-1,22′-[20]oxa[13]thia[1,14]diazatetracyclo [14.7.2.0~3,6~.0~19,24~]pentacosa[8,16,18,24]tetraen]-15′-one 13′,13′-dioxide]",0.398,–,354
"CO[C@@]1(CSC(C)C)/C=C/C[C@H](C)[C@@H](C)S(=O)(=O)NC(=O)c2ccc3c(c2)N(C[C@@H]2CC[C@H]21)C[C@@]1(CCCc2cc(Cl)ccc21)CO3 [Example 100441, (1S,3′R,6′R,7′S,8′E,11′S,12′R)-6-chloro-7′-methoxy-11′,12′-dimethyl-7′-((2-propanylsulfanyl)methyl)-3,4-dihydro-2H,15′H-spiro[naphthalene-1,22′-[20]oxa[13]thia[1,14]diazatetracyclo [14.7.2.0~3,6~.0~19,24~]pentacosa[8,16,18,24]tetraen]-15′-one 13′,13′-dioxide]",0.133,154,–
"CC(C)OC[C@]1(O)/C=C/C[C@H](C)[C@@H](C)S(=O)(=O)NC(=O)c2ccc3c(c2)N(C[C@@H]2CC[C@H]21)C[C@@]1(CCCc2cc(Cl)ccc21)CO3 [Example 100442, (1S,3′R,6′R,7′S,8′E,11′S,12′R)-6-chloro-7′-hydroxy-11′,12′-dimethyl-7′-((2-propanyloxy)methyl)-3,4-dihydro-2H,15′H-spiro[naphthalene-1,22′-[20]oxa[13]thia[1,14]diazatetracyclo [14.7.2.0~3,6~.0~19,24~]pentacosa[8,16,18,24]tetraen]-15′-one 13′,13′-dioxide]",0.921,3870,–
"COCCOC[C@]1(O)/C=C/C[C@H](C)[C@@H](C)S(=O)(=O)NC(=O)c2ccc3c(c2)N(C[C@@H]2CC[C@H]21)C[C@@]1(CCCc2cc(Cl)ccc21)CO3 [Example 100444, (1S,3′R,6′R,7′S,8′E,11′S,12′R)-6-chloro-7′-hydroxy-7′-((2-methoxyethoxy)methyl)-11′,12′-dimethyl-3,4-dihydro-2H,15′H-spiro[naphthalene-1,22′-[20]oxa[13]thia[1,14]diazatetracyclo [14.7.2.0~3,6~.0~19,24~]pentacosa[8,16,18,24]tetraen]-15′-one 13′,13′-dioxide]",0.098,646,–
"COCCOC[C@@]1(O)/C=C/C[C@H](C)[C@@H](C)S(=O)(=O)NC(=O)c2ccc3c(c2)N(C[C@@H]2CC[C@H]21)C[C@@]1(CCCc2cc(Cl)ccc21)CO3 [Example 100445, (1S,3′R,6′R,7′R,8′E,11′S,12′R)-6-chloro-7′-hydroxy-7′-((2-methoxyethoxy)methyl)-11′,12′-dimethyl-3,4-dihydro-2H,15′H-spiro[naphthalene-1,22′-[20]oxa[13]thia[1,14]diazatetracyclo [14.7.2.0~3,6~.0~19,24~]pentacosa[8,16,18,24]tetraen]-15′-one 13′,13′-dioxide]",0.04,98,–
"CO[C@@]1(CC(C)=O)/C=C/C[C@H](C)[C@@H](C)S(=O)(=O)NC(=O)c2ccc3c(c2)N(C[C@@H]2CC[C@H]21)C[C@@]1(CCCc2cc(Cl)ccc21)CO3 [Example 100446, (1S,3′R,6′R,7′S,8′E,11′S,12′R)-6-chloro-7′-methoxy-11′,12′-dimethyl-7′-(2-oxopropyl)-3,4-dihydro-2H,15′H-spiro[naphthalene-1,22′-[20]oxa[13]thia[1,14]diazatetracyclo [14.7.2.0~3,6~.0~19,24~]pentacosa[8,16,18,24]tetraen]-15′-one 13′,13′-dioxide]",0.126,345,–
"CO[C@@]1(CC=C(C)C)/C=C/C[C@H](C)[C@@H](C)S(=O)(=O)NC(=O)c2ccc3c(c2)N(C[C@@H]2CC[C@H]21)C[C@@]1(CCCc2cc(Cl)ccc21)CO3 [Example 100447, (1S,3′R,6′R,7′S,8′E,11′S,12′R)-6-chloro-7′-methoxy-11′,12′-dimethyl-7′-(3-methyl-2-buten-1-yl)-3,4-dihydro-2H,15′H-spiro[naphthalene-1,22′-[20]oxa[13]thia[1,14]diazatetracyclo [14.7.2.0~3,6~.0~19,24~]pentacosa[8,16,18,24]tetraen]-15′-one 13′,13′-dioxide]",0.05,184,–
"CO[C@]1(C#CCN2CCOCC2)/C=C/C[C@H](C)[C@@H](C)S(=O)(=O)NC(=O)c2ccc3c(c2)N(C[C@@H]2CC[C@H]21)C[C@@]1(CCCc2cc(Cl)ccc21)CO3 [Example 100448, (1S,3′R,6′R,7′R,8′E,11′S,12′R)-6-chloro-7′-methoxy-11′,12′-dimethyl-7′-(3-(4-morpholinyl)-1-propyn-1-yl)-3,4-dihydro-2H,15′H-spiro[naphthalene-1,22′-[20]oxa[13]thia[1,14]diazatetracyclo [14.7.2.0~3,6~.0~19,24~]pentacosa[8,16,18,24]tetraen]-15′-one 13′,13′-dioxide]",0.373,–,1920
"CO[C@]1(CCN2CCCCC2)/C=C/C[C@H](C)[C@@H](C)S(=O)(=O)NC(=O)c2ccc3c(c2)N(C[C@@H]2CC[C@H]21)C[C@@]1(CCCc2cc(Cl)ccc21)CO3 [Example 100449, (1S,3′R,6′R,7′R,8′E,11′S,12′R)-6-chloro-7′-methoxy-11′,12′-dimethyl-7′-(2-(1-piperidinyl)ethyl)-3,4-dihydro-2H,15′H-spiro[naphthalene-1,22′-[20]oxa[13]thia[1,14]diazatetracyclo [14.7.2.0~3,6~.0~19,24~]pentacosa[8,16,18,24]tetraen]-15′-one 13′,13′-dioxide]",0.071,171,–
"CO[C@@]1(CC(=O)N(C)C2CCC2)/C=C/C[C@H](C)[C@@H](C)S(=O)(=O)NC(=O)c2ccc3c(c2)N(C[C@@H]2CC[C@H]21)C[C@@]1(CCCc2cc(Cl)ccc21)CO3 [Example 100450, 2-((1S,3′R,6′R,7′S,8′E,11′S,12′R)-6-chloro-7′-methoxy-11′,12′-dimethyl-13′,13′-dioxido-15′-oxo-3,4-dihydro-2H-spiro[naphthalene-1,22′-[20]oxa[13]thia[1,14]diazatetracyclo [14.7.2.0~3,6~.0~19,24~]pentacosa[8,16,18,24]tetraen]-7′-yl)-N-cyclobutyl-N-methylacetamide]",0.336,1910,–
"COC[C@@H](C)N(C)C(=O)C[C@]1(OC)/C=C/C[C@H](C)[C@@H](C)S(=O)(=O)NC(=O)c2ccc3c(c2)N(C[C@@H]2CC[C@H]21)C[C@@]1(CCCc2cc(Cl)ccc21)CO3 [Example 100451, 2-((1S,3′R,6′R,7′S,8′E,11′S,12′R)-6-chloro-7′-methoxy-11′,12′-dimethyl-13′,13′-dioxido-15′-oxo-3,4-dihydro-2H-spiro[naphthalene-1,22′-[20]oxa[13]thia[1,14]diazatetracyclo [14.7.2.0~3,6~.0~19,24~]pentacosa[8,16,18,24]tetraen]-7′-yl)-N-((2R)-1-methoxy-2-propanyl)-N-methylacetamide]",0.111,412,–
